Source: patent publication US8716355B2, “Hydroxylated tolans and related compounds in the treatment of a cancer” (Kent State University, priority 2007, dated 2014)
Where “and” joins values, the source holds several entries; their conditions need not be identical. Equal entries are not always repeated. Where two headings read alike, the source gives them in different places.

What was measured:
[1] = tested on: normal human fibroblasts (MHRF); assay: MTT cytotoxicity, normal human fibroblasts; format: cell-based; conditions: for CD50 against MHRF: MTT
Method: (§1) As a first step, the antitumor activity of the tolans was assessed against a panel of three cancer cells lines that produce solid tumors upon implantation into animals. DU145 is an androgen-independent prostate cancer cells. T24 is a transitional cell bladder carcinoma cell. MDAH2274 (“MDAH) is an endometroid ovarian adenocarcinoma cell. To assess the selectivity of this antitumor activity, the toxicity of the tolans to normal human fibroblasts (MHRF) was examined. Subsequently, studies with Tolan-3 (KST-201) were expanded to test its action on a wide range of tumor cell lines.
(§2) Cell killing was evaluated using the colorimetric MTT assay. The assay measures the formation of a colored product from a chromogenic precursor, the tetrazole 3-[4,5-dimethylthiazol-2-yl]-2,5 diphenyltetrazolium bromide (MTT). The yellow MTT is reduced to purple formazan in the mitochondria of living cells. A solubilization solution (typically dimethyl sulfoxide or sodium dodecyl sulfate in dilute hydrochloric acid) is added to dissolve the insoluble purple formazan product into a colored solution. The absorbance of this colored solution is quantified by measuring at a certain wavelength (usually between 500 and 600 nm) by a spectrophotometer. The amount of purple formazan product generated is proportional to the number of viable cells (Mosmann, T., 1983, J. Immunol. Meth. 65:55-63; Wilson, A. P., Cytotoxicity and Viability Assays. In: Animal Cell Culture: A Practical Approach, 3rd ed. (Masters, J R W, ed.) Oxford University Press: Oxford, Vol. 1, pp. 175-219. 2000). This MTT assay is used widely to assess the cytotoxicity and selectivity of compounds such as anti-cancer drugs. The assay is suitable for rapid toxicity characterization of a test agent such as a drug formulation. […] A lower CD50 indicates a greater cytotoxic activity (as a lower amount of the agent is needed to achieve a fixed level of cytotoxicity). Two agents can be compared by examining the fold-increase or decrease in their CD50 values.

HT29 = assay: MTT cytotoxicity, HT29 colon; format: cell-based; conditions: Homo sapiens, HT-29, 72 h; 3 Days; read-out: CD50 (μM) HT29
Method: as §2, with “Two agents can be compared by examining the fold-increase or decrease in their CD50 values.” left out

WiDR = assay: MTT cytotoxicity, WiDR colon; format: cell-based; conditions: Homo sapiens, 72 h, 3 Days, read-out: CD50 (μM) WiDR
Method: as §2, with “Two agents can be compared by examining the fold-increase or decrease in their CD50 values.” left out

DU145 = assay: MTT cytotoxicity, DU145 prostate cancer cells; format: cell-based, human; conditions: for IC50: MTT, read-out: CD50 against DU145
Method: as §1, §2

NF-κB p65 = NF-κB p65 DNA-binding activity in DU145 cells (ELISA); format: cell-based, human; conditions: for DNA binding of p65, % of basal activity: 100 μM
Method: An ELISA kit (Pierce, Rockford, Ill.) was used to detect the active forms of NF-κB p65 by measuring its binding to a consensus DNA sequence. A primary antibody specific for p65 and a secondary horse-radish peroxidase (HRP)-conjugated antibody were used sequentially to produce immobilized p65-HRP complexes. A chemiluminescent substrate for HRP was added and the reaction read using the Fluoroskan Ascent FL plate reader
An ELISA kit (Pierce, Rockford, Ill.) was used to detect the active forms of NF-κB p65 by measuring its binding to a consensus DNA sequence. […] As controls, untreated cells were prepared under the same conditions. Cells were collected by scraping and incubated in ice-cold RIPA lysis buffer containing 1% NP40, 0.5% sodium deoxycholate, 0.1% SDS and protease inhibitor cocktail. After centrifugation, the supernatant was transferred to a streptavidin-coated 96-well plate. Active p65 in the sample binds to the immobilized DNA molecules.
To ensure the signal specificity, competitive DNA fragments containing a NF-κB binding site were used to prevent the binding of NF-κB to the consensus sequence. A primary antibody specific for p65 and a secondary HRP-conjugated antibody were added to each well sequentially, resulting in an immobilized p65-HRP complex. Unbound antibodies were washed away. A mixture of luminol/enhancer and peroxide solution was added into each well as a chemiluminescent substrate for HRP. The chemiluminescent signal, proportional to the relative amount of active p65 in the sample, was detected using the Fluoroskan Ascent FL plate reader (Thermo, Waltham, Mass.).
DNA sequences containing p65-binding site were immobilized to wells of 96-well plates, allowing activated p65 to bind. After washing, the amount of bound p65 was detected and quantified by the above method. The DNA-binding of active p65 was determined by the intensity of chemiluminescence produced by DNA-p65-HRP complex immobilized on well surfaces. The results represent the mean±SD of triplicate determinations. An inhibitor of p65 binding to DNA was added to confirm specificity. […]

HSV-1 = HSV-1 replication in infected Vero cells (plaque assay); format: cell-based, Herpes Simplex Virus-Type 1; conditions: for IC50: Human alphaherpesvirus 1, Vero, read-out: IC50, concentration at which 50% of HSV-1 replication was inhibited
Method: For this purpose HSV-1 replication at 24, 48 and 72 h was examined in the presence or absence of varying concentrations of the polyphenol.
The SI is the ratio of the CD50 divided by a selected inhibitory concentration (IC %).
Viral inhibition by Tolan-3 appeared to occur after viral entry into cells. […] Subsequently, the compound was removed and replaced with culture medium alone, and the incubated continued for 48 or 72 more hrs. In a second experiment, HSV-1 infected Vero cells were incubated with 350 μM Tolan-3 for 48 h. Thereafter, the Tolan-3 was removed and replaced by medium and the incubation continued for an additional 24 h. Viral titers were calculated by a standard plaque assay.

SKMEL28 = assay: MTT cytotoxicity, SKMEL28 melanoma; format: cell-based; conditions: Homo sapiens, SK-MEL-28, 72 h; 3 Days; read-out: CD50 (μM) SKMEL28
Method: as §2, with “Two agents can be compared by examining the fold-increase or decrease in their CD50 values.” left out

Vero cells = assay: Cytotoxicity (CD50) on Vero cells; format: cell-based; conditions: 48 hours of exposure
From the text: See Example II for tumor cell cytotoxicity of these compounds. […] NAB group 32 contains two compounds, Tolan-2 (also designated herein as KST-201) and Stil-2. Based on the NAB, they were classified as topological isomers. However, chemically they differ because Stil-2, a […], contained a double bonded linker, while Tolan-2 contained a triple bonded linker. The cytotoxicity of the two molecules on Vero cells differed markedly: Tolan-2 was less toxic than Stil-2.

[2] = Homo sapiens, DU-145, 24 h, 1 day incubation
[3] = Homo sapiens, DU-145, 48 h, 2 days incubation
[4] = Homo sapiens, DU-145, 72 h, 3 days incubation

SMILES	CD50 against MHRF ([1]; 2 days incubation) [µM]	CD50 against MHRF ([1]; 3 days incubation)	IC50 (HT29) [µM]	IC50 (WiDR) [µM]	IC50 (DU145; [2]) [µM]	IC50 (DU145; [3]) [µM]	IC50 (DU145; [4]) [µM]	IC50 (DU145; 1 day incubation) [µM]	IC50 (HSV-1) [µM]	IC50 (SKMEL28) [µM]	CD50 (Vero cells) [µM]	Log CD50 (Vero cells)	further results
Oc1ccc(C#Cc2ccc(O)cc2)cc1 [KST-201, 4,4′-dihydroxytolan]	194.1 ± 9.60	153 µM and 153.2 ± 4.40 µM and 153 ± 4.4 µM	79 ± 0.8	80 ± 0.9	57	16.8 ± 0.63	9.4	57.3 ± 0.81	15.6	82 ± 10	106	2.03	Fold less toxic to normal fibroblasts than resveratrol ([1]; Table 15 vs Table 14): 3.5 fold; Fold more potent against DU145 cells compared to control MHRF fibroblasts (DU145): 16 fold; Fold more toxic to DU145 prostate cancer cells than resveratrol (DU145; Table 15 vs Table 14): 3 fold; Reduction of DNA-binding activity of NF-κB by at least 50% (NF-κB p65; 12-hour treatment): not sufficient to reduce DNA-binding activity of NF-κB; NF-κB inhibition compared with resveratrol (NF-κB p65; 24-hour treatment, 50 and 100 μM): more effective inhibitor of NF-κB; SI50 (selectivity index, CD50 divided by IC50) (HSV-1; 48 h post-infection): 6.8; Effect on HSV-1 viral replication in Vero cells (in words) (HSV-1; at CD50, 75% and 50% of CD50, 24, 48, 72 h): significant anti-HSV activity
Oc1ccc(/C=C/c2cc(O)cc(O)c2)cc1 [Resveratrol, 3,5,4′-trihydroxy-trans-stilbene, reference compound]	50.9 ± 0.6	44.3 ± 3.0 µM and 47 ± 6.0 µM	163 ± 0.3	142 ± 6.4	92	58.2 ± 0.4	28	92.2 ± 2.9	23.4	69 ± 1.2	264	2.42	CD50 against MHRF ([1]; 1 day incubation): 154.8 ± 16.5 µM; CD50 against MHRF ([1]; 1 day incubation, listed as resveratrol): 155 µM; CD50 against MHRF ([1]; 3 days incubation, listed as resveratrol): 44 µM; IC50 (DU145; 3 days incubation): 27.9 ± 0.65 µM; DNA binding of p65, % of basal activity (NF-κB p65; 12 hours): 55.3%; DNA binding of p65, % of basal activity (NF-κB p65; 24 hours): 40.2%; DNA binding activity of p65, % of basal activity (NF-κB p65; 24-hour treatment at 5, 25 and 50 μM): ~80%
